Laboratory results as given in patent publication US11376252B2, “Multikinase inhibitors and uses in prostatic hyperplasia and urinary track diseases” (AIVIVA BIOPHARMA, INC., priority 2017, dated 2022).
“Also recorded” adds a separate entry of the source. Structures can show the parent of a compound that is named as a salt.

Tests used:
[1] = test system: testosterone (TE) and phenylephrine (PE) induced benign prostate hyperplasia in rats; experiment: Testosterone (TE) and phenylephrine (PE) induced benign prostate hyperplasia in rats, intra-prostate injection (Example 1); format: in vivo, Male Wistar rats; conditions: for glandular hyperplasia as compared to the untreated TE/PE induced prostates: TE/PE induced rats, intra-prostate injection, histology
Method: BPH is a true hyperplastic process. Histologic studies have documented an increase in cell number. A study was conducted, therefore, to determine the effects of test compounds and vehicle on testosterone (TE) and phenylephrine (PE) induced benign prostate hyperplasia in rats. Male Wistar rats were induced with testosterone (2 mg/kg) plus phenylephrine (5 mg/kg) administered daily by subcutaneous injection on days 5 through 32. Vehicle or test compounds (all at 1% w/w), nintedanib, sunitinib, lenvatinib, and 0.5% doxazosin mesylate, were administered by intra-prostate injection (0.4 ml) in dorsolateral and ventral lobes on days 1 and 18. Animals were euthanized on day 32. Body weights were determined and prostate glands were harvested. The experimental design is outlined in Table 1.
At necropsy, the ventral and dorsolateral lobes of the prostate were separated and then cut into halves. The left halves were fixed in 10% neutral buffered formalin, sectioned, and stained with Hematoxylin and Eosin (H&E). Histological changes in these sections were scored. Epithelial hyperplasia was recognized as an increase in epithelial cells within normal-appearing gland profiles, primarily reflected by stratification of epithelial cells and increased presence of epithelial tufting and papillary projections. A severity grade of 0 (not present) through 5 (severe) was assigned to each sample.

[2] = test system: laser induced choroidal neovascularization; experiment: Laser induced choroidal neovascularization in rat eyes (Example 5); format: in vivo; conditions: Day 22, FIG. 9; for lesion sizes relative to vehicle (fluorescein angiography): topical eyedrop 1%, three times a day Days 2-21
Source text: Increased expression of angiogenic factors, such as VEGF and bFGF, along with increased microvessel density, have been reported in benign prostatic hyperplasia, high grade prostate intraepithelial neoplasia and prostate cancer. […] In this example, the effect of local administration of multikinase inhibitors in a rat model of neovascularization was examined. New vessel growth is regulated by growth factor receptor signaling pathways, the functions of which broadly overlap among organs and tissues. In this study, effects of local administration of the multikinase inhibitors nintedanib and lenvatinib were examined by intravitreal injection or topical application to rat eyes following laser induced choroidal neovascularization. A 22-day study was conducted to determine the effects of test agents, positive control, or vehicle on the development of new vessels. On Day 1, laser treatments were performed on all animals using a 520 nm thermal laser to generate a total of three lesions per eye. On Days 2-21, bilateral topical administration of vehicle, 1% nintedanib, or 1% lenvatinib was performed three times a day. On Day 3, bilateral intravitreal injection of vehicle, 5 μg/eye of rat anti-VEGF antibody, 50 μg/eye of nintedanib, or 50 μg/eye of lenvatinib was performed in a second group of animals. On Day 22, fluorescein angiography was performed on all animals and lesion size/area was determined using image analysis software (ImageJ).

[3] = test system: suture induced fibrosis model in rabbits; experiment: Suture induced fibrosis model in rabbits (cornea), topical administration (Example 4); format: in vivo; conditions: 0.3% w/w topical, three times daily for 10 days, Day 11; for fibroplasia and/or collagen density (histological staining, Masson's trichrome): FIG. 8
Method: A study was conducted to determine the potential beneficial effects of topical administration of test compounds and vehicle in a suture induced fibrosis model in rabbits. Sutures were placed intrastromally, under a microscope, in the cornea of rabbits. In each eye, one 9-0 silk suture was placed, in a vertical position, temporal to the center of the cornea and a second suture was placed nasal to the corneal center. Each suture had two stromal incursions approximately 2 mm from the limbus. Test compounds having a certain spectrum of multikinase inhibition activities, or vehicle, were topically instilled (35 μL/eye) in the eyes three times daily for 10 days following surgery. The treatment groups include vehicle, nintedanib (0.3%, w/w), sorafenib (0.3%, w/w) and lenvatinib (0.3%, w/w). Six left eyes were used per treatment group.
During the in-life phase, gross ocular observations of very slight to moderate conjunctival congestion and swelling were similar among groups, including the vehicle control. The animals were sacrificed on Day 11 and eyes enucleated and dissected for histopathological evaluation.

[4] = test system: testosterone and/or phenylephrine induced BPH in rats; experiment: Post-induction study in testosterone and/or phenylephrine induced BPH in rats, intra-prostate injection (Example 2); format: in vivo, Male Wistar rats; conditions: for mean prostate weight/100 g body weight compared to vehicle: TE+PE induced days 1-28; for epithelial hyperplasia score (0 not present through 5 severe), representative image: dorsolateral prostate, FIG. 6
Method: Morphologically, BPH is characterized by the formation of a new architecture through the proliferation of the epithelium in pre-existing ducts. Given that stromal cells serve important paracrine regulatory functions in epithelial cell homeostasis, late stage changes in stromal-epithelial interactions could provide insight into BPH progression. A second study was conducted to determine the therapeutic effects of test compounds and vehicle, post-induction in a protocol using testosterone and/or phenylephrine induced BPH in rats.
Male Wistar rats were induced with testosterone (2 mg/kg) plus phenylephrine (5 mg/kg) administered daily by subcutaneous injection on days 1 through 28. Vehicle or test compounds sorafenib (1% w/w), pirfenidone (2.5% w/w), and riociguat (1% w/w) were administered by intra-prostate injection (0.2 ml) in the dorsolateral lobe on days 15 and 29. Animals were euthanized on day 42. Body weights were determined. Prostate glands were harvested and weighed. The experimental design is outlined in Table 2.
At necropsy, the dorsolateral and ventral lobes of the prostate were separated and cut into halves. The left halves were fixed in 10% neutral buffered formalin, sectioned, and stained with Hematoxylin and Eosin (H&E). Epithelial hyperplasia was recognized as an increase in epithelial cells within normal appearing gland profiles, as reflected in the stratification of epithelial cells and increased presence of epithelial tufting and papillary projections. Stromal changes were examined microscopically. These changes included inflammation and tissue fibroplasia. Each section was given a severity score ranging from 0 (not present) through 5 (severe).

[5] = dorsolateral prostate, TE and PE induced, intra-prostate injection days 1 and 18, 1% w/w (doxazosin 0.5%), day 32, H&E, FIG. 1
[6] = ventral prostate, TE and PE induced, intra-prostate injection days 1 and 18, 1% w/w (doxazosin 0.5%), day 32, H&E, FIG. 2
[7] = intravitreal injection 50 μg/eye on Day 3
[8] = intra-prostate injection days 15 and 29, day 42, FIG. 5
[9] = TE+PE induced, intra-prostate injection days 15 and 29, day 42

| Structure (SMILES) | glandular hyperplasia as compared to the untreated TE/PE induced prostates [1] | epithelial hyperplasia score (severity grade 0 not present through 5 severe), representative image [1, 5] | epithelial hyperplasia score (severity grade 0 not present through 5 severe), representative image [1, 6] | alpha SMA staining by immunohistochemical analysis relative to vehicle [3] | fibroplasia and/or collagen density (histological staining, Masson's trichrome) [3] | also measured |
| --- | --- | --- | --- | --- | --- | --- |
| COc1cc2nc(N3CCN(C(=O)C4COc5ccccc5O4)CC3)nc(N)c2cc1OC (stereo not drawn) [doxazosin, doxazosin mesylate] | demonstrated reduction of glandular hyperplasia | 3 | 3 | – | – | – |
| COc1cc2nccc(Oc3ccc(NC(=O)NC4CC4)c(Cl)c3)c2cc1C(N)=O [lenvatinib] | demonstrated reduction of glandular hyperplasia | 2 | 3 | significantly reduced alpha SMA staining | significantly reduced fibroplasia and/or collagen density | lesion sizes relative to vehicle-treated eyes (fluorescein angiography) [2, 7]: significantly reduced lesion sizes; lesion sizes relative to positive control, rat anti-VEGF (fluorescein angiography) ([2]; intravitreal injection 50 μg/eye on Day 3, anti-VEGF 5 μg/eye): significantly reduced lesion sizes; lesion sizes relative to vehicle (fluorescein angiography) [2]: reduced lesion sizes |
| COC(=O)c1ccc2c(c1)NC(=O)/C2=C(\Nc1ccc(N(C)C(=O)CN2CCN(C)CC2)cc1)c1ccccc1 [nintedanib] | demonstrated reduction of glandular hyperplasia | 3 | 3 | significantly reduced alpha SMA staining | significantly reduced fibroplasia and/or collagen density | lesion sizes relative to vehicle-treated eyes (fluorescein angiography) [2, 7]: significantly reduced lesion sizes; lesion sizes relative to vehicle (fluorescein angiography) [2]: reduced lesion sizes |
| Cc1ccc(=O)n(-c2ccccc2)c1 [pirfenidone] | – | – | – | – | – | mean prostate weight/100 g body weight compared to vehicle [4, 8]: did not show a reduction in mean prostate weight; epithelial hyperplasia score (0 not present through 5 severe), representative image [4, 9]: 1 |
| COC(=O)N(C)c1c(N)nc(-c2nn(Cc3ccccc3F)c3ncccc23)nc1N [riociguat] | – | – | – | – | – | effect on prostate volume and histological changes in epithelial hyperplasia ([4]; TE induced rats, 1% w/w intra-prostate): showed an effect on prostate volume and histological changes in epithelial hyperplasia; mean prostate weight/100 g body weight compared to vehicle control ([4]; TE induction days 1-28, intra-prostate injection days 15 and 29, day 42, FIG. 5): reduced the mean prostate weight; epithelial hyperplasia score (0 not present through 5 severe), representative image ([4]; TE induced, intra-prostate injection days 15 and 29, day 42): 1 |
| CNC(=O)c1cc(Oc2ccc(NC(=O)Nc3ccc(Cl)c(C(F)(F)F)c3)cc2)ccn1 [sorafenib] | – | – | – | no effect on alpha SMA | little or no effect | mean prostate weight/100 g body weight compared to vehicle [4, 8]: did not show a reduction in mean prostate weight; inhibition of benign prostate hyperplasia / therapeutic effect in the prostate ([4]; TE+PE induced rats, 1% w/w intra-prostate): not an effective inhibitor; also recorded: did not show any therapeutic effect; epithelial hyperplasia score (0 not present through 5 severe), representative image [4, 9]: 2 |
| CCN(CC)CCNC(=O)c1c(C)[nH]c(/C=C2\C(=O)Nc3ccc(F)cc32)c1C [sunitinib] | – | 3 | – | – | – | epithelial hyperplasia score (severity grade 0 not present through 5 severe), representative image ([1]; 768 h): 3 |
